We go through ten compounds from US20130345214A1, “Lipoxygenase Inhibitors” (SRI International, Inc., priority 2011, published 2013).

“Also recorded” adds a separate entry of the source.

As a reminder, the inhibition is the share of the control response that was lost under treatment. Higher therefore signals a strong effect. Broadly, the IC50 is the midpoint of a concentration-inhibition curve.

Data set [1] addresses T1, 5-LOX (Homo sapiens, UniProt P09917).
T1 sequence (P09917 1-674): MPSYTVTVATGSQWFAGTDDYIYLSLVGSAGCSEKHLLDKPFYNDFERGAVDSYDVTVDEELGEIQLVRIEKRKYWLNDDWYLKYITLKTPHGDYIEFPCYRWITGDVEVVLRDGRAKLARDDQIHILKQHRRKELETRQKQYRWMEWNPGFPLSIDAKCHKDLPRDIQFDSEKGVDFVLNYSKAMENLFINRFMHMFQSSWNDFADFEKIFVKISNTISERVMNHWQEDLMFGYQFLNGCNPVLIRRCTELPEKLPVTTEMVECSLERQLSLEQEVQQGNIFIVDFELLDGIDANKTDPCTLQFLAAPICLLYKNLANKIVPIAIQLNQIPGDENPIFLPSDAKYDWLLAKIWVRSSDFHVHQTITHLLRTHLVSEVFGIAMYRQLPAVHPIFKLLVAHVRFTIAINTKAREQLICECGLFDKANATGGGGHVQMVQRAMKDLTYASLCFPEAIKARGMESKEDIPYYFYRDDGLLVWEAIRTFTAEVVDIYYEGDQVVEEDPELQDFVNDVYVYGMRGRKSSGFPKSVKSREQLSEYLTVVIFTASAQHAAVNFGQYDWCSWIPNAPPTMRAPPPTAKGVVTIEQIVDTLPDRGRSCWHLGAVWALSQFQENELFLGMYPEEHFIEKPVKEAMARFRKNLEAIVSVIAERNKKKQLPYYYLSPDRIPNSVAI
In words: fluorescence-based enzyme assay of human 5-LOX (Table 3). The format is biochemical. Conditions: 3 μM. The text has this: (§1) Table 3 provides results for exemplary subject bisindole compounds on 5-LOX, 12-LOX and 15-LOX.

Another data set deals with T2, human 12-LOX (Homo sapiens, UniProt P18054).
T2 construct: ferric oxidation of xylenol orange from arachidonic acid in human blood platelets; endogenous in cells; host or cells: human blood platelets
T2 sequence (P18054 1-663): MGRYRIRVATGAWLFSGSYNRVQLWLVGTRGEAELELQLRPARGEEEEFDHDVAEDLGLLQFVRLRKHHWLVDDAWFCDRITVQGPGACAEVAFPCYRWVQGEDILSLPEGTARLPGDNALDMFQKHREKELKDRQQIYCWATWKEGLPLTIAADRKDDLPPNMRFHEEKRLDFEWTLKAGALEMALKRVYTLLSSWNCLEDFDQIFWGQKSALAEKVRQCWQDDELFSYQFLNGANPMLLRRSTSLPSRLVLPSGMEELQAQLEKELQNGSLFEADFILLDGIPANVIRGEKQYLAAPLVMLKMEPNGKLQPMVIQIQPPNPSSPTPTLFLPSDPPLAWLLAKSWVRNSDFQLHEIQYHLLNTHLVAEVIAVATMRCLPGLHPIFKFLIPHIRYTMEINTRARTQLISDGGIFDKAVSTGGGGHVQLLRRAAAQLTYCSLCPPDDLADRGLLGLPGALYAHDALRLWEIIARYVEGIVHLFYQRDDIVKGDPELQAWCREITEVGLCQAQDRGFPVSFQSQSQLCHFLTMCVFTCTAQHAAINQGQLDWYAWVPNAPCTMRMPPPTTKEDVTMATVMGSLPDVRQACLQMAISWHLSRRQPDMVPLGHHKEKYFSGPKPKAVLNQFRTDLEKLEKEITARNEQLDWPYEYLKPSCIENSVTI
Nature of the data set: colorimetric platelet 12-LOX activity assay (ferric oxidation of xylenol orange, human blood platelets). The data set is classed as cell-based.
Description: as §1

A further data set concerns the target T3, 15-LOX-2 (Homo sapiens, UniProt O15296).
T3 sequence (O15296 1-676): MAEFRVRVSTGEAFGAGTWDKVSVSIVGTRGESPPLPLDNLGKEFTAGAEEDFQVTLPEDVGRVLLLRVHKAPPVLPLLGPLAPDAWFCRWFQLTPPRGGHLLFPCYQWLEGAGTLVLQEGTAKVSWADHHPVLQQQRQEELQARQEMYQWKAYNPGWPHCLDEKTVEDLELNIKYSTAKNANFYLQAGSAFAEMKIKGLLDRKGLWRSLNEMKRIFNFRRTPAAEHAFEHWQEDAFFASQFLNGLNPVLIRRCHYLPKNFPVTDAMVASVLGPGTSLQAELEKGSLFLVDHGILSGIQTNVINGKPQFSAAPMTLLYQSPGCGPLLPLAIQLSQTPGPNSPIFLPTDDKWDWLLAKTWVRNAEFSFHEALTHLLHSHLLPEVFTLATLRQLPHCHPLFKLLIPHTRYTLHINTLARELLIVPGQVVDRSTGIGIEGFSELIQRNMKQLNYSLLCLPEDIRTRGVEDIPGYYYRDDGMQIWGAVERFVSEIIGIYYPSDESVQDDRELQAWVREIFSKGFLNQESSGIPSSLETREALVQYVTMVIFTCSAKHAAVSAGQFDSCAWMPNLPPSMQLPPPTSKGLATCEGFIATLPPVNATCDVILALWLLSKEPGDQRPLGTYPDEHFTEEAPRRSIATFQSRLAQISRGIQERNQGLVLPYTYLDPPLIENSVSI
In words: in vitro 15-LOX-2 inhibition (Table 3). The data set is classed as biochemical.
Description: as §1

Data set [2] concerns the target T1, 5-LOX. In words: enzyme panel screening, 5-LOX. The format is biochemical.
The subject of the next data set is 15-LOX. Nature of the data set: enzyme panel screening, 15-LOX. The data set is classed as biochemical.
The next data set addresses COX-1 (Homo sapiens, UniProt P23219). Nature of the data set: effect on cyclooxygenase COX-1 activity. The format is biochemical.
Another data set addresses T4, COX-2 (Homo sapiens, UniProt P35354).
T4 sequence (P35354 18-604): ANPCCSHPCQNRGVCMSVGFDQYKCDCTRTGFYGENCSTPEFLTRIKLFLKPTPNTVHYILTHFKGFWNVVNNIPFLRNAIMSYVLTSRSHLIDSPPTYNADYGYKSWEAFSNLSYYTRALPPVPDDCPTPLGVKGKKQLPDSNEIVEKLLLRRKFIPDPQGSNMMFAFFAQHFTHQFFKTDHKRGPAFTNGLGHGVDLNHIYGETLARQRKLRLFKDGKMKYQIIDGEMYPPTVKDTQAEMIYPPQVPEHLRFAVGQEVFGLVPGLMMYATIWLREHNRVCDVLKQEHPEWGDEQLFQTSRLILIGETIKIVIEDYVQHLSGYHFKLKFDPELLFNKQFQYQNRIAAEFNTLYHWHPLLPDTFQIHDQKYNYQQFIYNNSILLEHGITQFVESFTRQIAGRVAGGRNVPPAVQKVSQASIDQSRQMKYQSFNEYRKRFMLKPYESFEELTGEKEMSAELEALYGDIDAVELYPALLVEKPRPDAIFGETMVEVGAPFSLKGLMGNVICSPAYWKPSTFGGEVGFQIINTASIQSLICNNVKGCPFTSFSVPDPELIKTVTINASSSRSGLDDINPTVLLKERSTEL
In words: effect on cyclooxygenase COX-2 activity. The format is biochemical.

The target in data set [3] is kinase targets, including Akt(1,2,3), PI3K, and PDK1. In words: kinase panel screening. Conditions: broad selection of kinase targets incl. Akt(1,2,3). The data set is classed as biochemical.
The next data set deals with Akt and ERK activation. In words: Akt and ERK activation. The data set is classed as cell-based. Conditions: by inhibiting 12-LOX mediated metabolism of arachidonic acid.
A short description of data set [4]: glucose metabolism and body weight in mice after oral treatment. The format is in vivo.

Chain of COX-1 (P23219 24-599): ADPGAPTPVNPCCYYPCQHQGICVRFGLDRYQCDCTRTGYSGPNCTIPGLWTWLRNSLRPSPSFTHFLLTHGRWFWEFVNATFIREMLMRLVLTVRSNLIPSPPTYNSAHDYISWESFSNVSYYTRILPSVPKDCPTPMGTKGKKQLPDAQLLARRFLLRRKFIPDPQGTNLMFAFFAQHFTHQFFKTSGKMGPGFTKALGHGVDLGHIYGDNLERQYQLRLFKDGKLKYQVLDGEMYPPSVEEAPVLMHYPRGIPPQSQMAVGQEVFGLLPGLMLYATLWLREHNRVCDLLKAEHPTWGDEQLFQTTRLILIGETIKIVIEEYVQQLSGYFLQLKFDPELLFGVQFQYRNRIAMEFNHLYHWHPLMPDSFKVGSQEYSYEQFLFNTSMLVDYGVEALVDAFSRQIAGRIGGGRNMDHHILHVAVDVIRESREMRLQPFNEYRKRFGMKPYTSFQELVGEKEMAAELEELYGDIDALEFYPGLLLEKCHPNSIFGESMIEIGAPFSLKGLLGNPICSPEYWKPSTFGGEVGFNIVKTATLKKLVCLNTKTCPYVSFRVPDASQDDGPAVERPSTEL

`CN(C)CCOc1c2[nH]c3ccc(F)cc3c2c(Cl)c2c1[nH]c1ccc(F)cc12` [drawing 18]: the inhibition at 3 µM against 5-LOX [1] was 75%; on human 12-LOX, 85%; at 15-LOX-2, 17%.
For `Fc1ccc2[nH]c3c(OC4CCNC4)c4[nH]c5ccc(F)cc5c4cc3c2c1` (stereo not drawn) [drawing 12], the inhibition at 3 µM at 5-LOX [1] is 86%; at human 12-LOX it was 80%; at 15-LOX-2 it was 51%.
Consider `Nc1nnn(CCOc2c3[nH]c4ccc(Cl)cc4c3cc3c2[nH]c2ccc(Cl)cc23)n1` [drawing 9], for which the inhibition at 3 µM on 5-LOX [1] came to 70%; against human 12-LOX, 77%; against 15-LOX-2, 19%.
Turning to `Fc1ccc2[nH]c3c(OC[C@@H]4CCCN4)c4[nH]c5ccc(F)cc5c4cc3c2c1`, the inhibition at 3 µM on 5-LOX [1] was 92%; against human 12-LOX, 88%; on 15-LOX-2, 55%.
In the case of `Fc1ccc2[nH]c3c(OC[C@@H]4C[C@H](F)CN4)c4[nH]c5ccc(F)cc5c4cc3c2c1` [drawing 19], the inhibition at 3 µM against 5-LOX [1] was found to be 87%; against human 12-LOX, 87%; against 15-LOX-2 it was 41%.
In the case of `Cc1c2[nH]c3ccccc3c2cc2c1[nH]c1ccccc12`, the inhibition at 3 µM against 5-LOX [1] came out at 52%; on human 12-LOX, 76%; at 15-LOX-2, 16%.
Turning to `CN(C)CCOc1c2[nH]c3ccc(F)cc3c2cc2c1[nH]c1ccc(F)cc12` [drawing 7], the figures for the inhibition at 3 µM against 5-LOX [1], at human 12-LOX and on 15-LOX-2 were 90%, 78% and 46%, respectively.
For `CCOC(=O)c1ccc2[nH]c3c(OC)c4[nH]c5ccc(C(=O)OCC)cc5c4cc3c2c1` [Compound (1)], on human 12-LOX (10 uM, human blood platelets, cell-based assay), the “12-LOX enzyme activity inhibition” value is reported as “inhibit 12-LOX enzyme activity”. At human 12-LOX (cell-based enzyme assay), this compound showed a half-inhibitory concentration (IC50) of 10 nM. Moreover, the “selectivity for 12-LOX” value at human 12-LOX (versus panels of kinases and enzymes incl. 5-LOX and 15-LOX) was “selective for 12-LOX; also recorded: selectively inhibits 12-lipoxygenase enzyme activity; also recorded: selectively inhibits human 12-LOX”. Also, at 5-LOX [2], the “effect on 5-LOX activity” value is given as “does not significantly affect the activity”. Also, the “effect on 15-LOX activity” value in the data set with 15-LOX was “does not significantly affect the activity”. For the same compound, the “effect on COX-1 activity” value on COX-1 was “does not significantly affect the activity”. Moreover, the “effect on COX-2 activity” value on COX-2 is reported as “does not significantly affect the activity”. For the same compound, the kinase inhibition result in [3] was “not a kinase inhibitor”. The “Akt and ERK activation” value in the data set on Akt and ERK activation was “inhibit Akt and ERK activation”. The “effects on glucose metabolism” value in data set [4] was “no adverse effects on glucose metabolism”. In [4] (oral, 500 mg/kg/day, 14 days), the “effects on body weights” value is “no adverse effects” and the “effects on fasting glucose levels” value is “no adverse effects”.
Turning to `CCOC(=O)c1ccc2[nH]c3c(O[C@H]4CCNC4)c4[nH]c5ccc(C(=O)OCC)cc5c4cc3c2c1` [drawing 20], the inhibition at 3 µM was 37% at 5-LOX [1], 75% at human 12-LOX and 10% at 15-LOX-2.
For `Fc1ccc2[nH]c3c(OC[C@H]4CCCN4)c4[nH]c5ccc(F)cc5c4c(Cl)c3c2c1`, in that order: 91%, 80% and 45%.
